Measurements from the NIST ThermoML archive (doi:10.1016/j.jct.2017.03.026).
Several values for one entry are separate records, joined by “and”; a condition that tells them apart may be missing. Equal entries are not always repeated. ± gives the expanded uncertainty stated by the source.

Experiment: molar heat capacity at constant pressure
Conditions: 101.33 kPa, Crystal, Small (less than 1 g) adiabatic calorimetry

O.O.O.O.O.O=S(=O)([O-])[O-].[Cu+2] [copper(II) sulfate pentahydrate]
Conditions	molar heat capacity at constant pressure
287.75 K	289.04 ± 1.3 J/K/mol
287.82 K	289.61 ± 1.3 J/K/mol
288.14 K	289.34 ± 1.3 J/K/mol
288.18 K	290.46 ± 1.3 J/K/mol
288.42 K	289.31 ± 1.3 J/K/mol
288.47 K	290.31 ± 1.3 J/K/mol
288.59 K	291.83 ± 1.3 J/K/mol
288.8 K	291.86 ± 1.3 J/K/mol
289.09 K	290.24 ± 1.3 J/K/mol
289.13 K	293.01 ± 1.3 J/K/mol
289.48 K	297.45 ± 1.3 J/K/mol
289.75 K	292.88 ± 1.3 J/K/mol
289.76 K	282.28 ± 1 J/K/mol and 282.25 ± 1 J/K/mol and 292.61 ± 1.3 J/K/mol
289.83 K	290.48 ± 1.3 J/K/mol
290 K	282.3 ± 1 J/K/mol
290.23 K	291.98 ± 1.3 J/K/mol
290.44 K	291.33 ± 1.3 J/K/mol
290.57 K	288.74 ± 1.3 J/K/mol
290.91 K	292.31 ± 1.3 J/K/mol and 292.23 ± 1.3 J/K/mol
291.11 K	292.78 ± 1.3 J/K/mol and 291.01 ± 1.3 J/K/mol
291.26 K	298.2 ± 1.3 J/K/mol
291.62 K	292.93 ± 1.3 J/K/mol
291.78 K	291.86 ± 1.3 J/K/mol
291.96 K	292.13 ± 1.3 J/K/mol
292.07 K	282.87 ± 1 J/K/mol
292.1 K	293.31 ± 1.3 J/K/mol
292.31 K	293.26 ± 1.3 J/K/mol
292.46 K	294.11 ± 1.3 J/K/mol
292.51 K	284.12 ± 1 J/K/mol
292.65 K	291.23 ± 1.3 J/K/mol
292.99 K	292.66 ± 1.3 J/K/mol
293.15 K	293.46 ± 1.3 J/K/mol
293.27 K	294.35 ± 1.3 J/K/mol
293.33 K	294.9 ± 1.3 J/K/mol
293.67 K	295.88 ± 1.3 J/K/mol
293.82 K	293.83 ± 1.3 J/K/mol
294.03 K	294.9 ± 1.3 J/K/mol and 295.65 ± 1.3 J/K/mol
294.37 K	295.73 ± 1.3 J/K/mol
294.44 K	295.25 ± 1.3 J/K/mol
294.48 K	285.79 ± 1 J/K/mol
294.5 K	295.03 ± 1.3 J/K/mol
294.72 K	294.11 ± 1.3 J/K/mol
295.06 K	293.36 ± 1.3 J/K/mol
295.25 K	295.78 ± 1.3 J/K/mol
295.26 K	286 ± 1 J/K/mol
295.4 K	295.15 ± 1.3 J/K/mol
295.61 K	296.03 ± 1.3 J/K/mol
295.81 K	299.05 ± 1.3 J/K/mol
295.94 K	296.5 ± 1.3 J/K/mol
296.17 K	298.85 ± 1.3 J/K/mol
296.52 K	298.75 ± 1.3 J/K/mol
296.64 K	295.93 ± 1.3 J/K/mol
296.79 K	296.15 ± 1.3 J/K/mol
296.84 K	287.36 ± 1 J/K/mol
296.88 K	296.35 ± 1.3 J/K/mol
296.93 K	297 ± 1.3 J/K/mol
297.22 K	297.15 ± 1.3 J/K/mol
297.32 K	296.23 ± 1.3 J/K/mol
297.57 K	297.23 ± 1.3 J/K/mol
297.91 K	299.05 ± 1.3 J/K/mol
297.94 K	297.85 ± 1.3 J/K/mol
298 K	296.85 ± 1.3 J/K/mol
298.02 K	287.88 ± 1 J/K/mol
298.15 K	288 ± 1 J/K/mol
298.25 K	298.42 ± 1.3 J/K/mol
298.59 K	299.17 ± 1.3 J/K/mol
298.68 K	299.05 ± 1.3 J/K/mol
298.94 K	299.4 ± 1.3 J/K/mol
299.12 K	298.65 ± 1.3 J/K/mol
299.23 K	288.76 ± 1 J/K/mol
299.29 K	300.47 ± 1.3 J/K/mol
299.37 K	298.15 ± 1.3 J/K/mol
299.64 K	299.5 ± 1.3 J/K/mol
299.82 K	299.2 ± 1.3 J/K/mol
300 K	289.3 ± 1.1 J/K/mol
300.06 K	299.2 ± 1.3 J/K/mol
300.3 K	299.45 ± 1.3 J/K/mol
300.75 K	298.85 ± 1.3 J/K/mol
300.77 K	289.98 ± 1.1 J/K/mol
301.44 K	299.02 ± 1.3 J/K/mol
301.47 K	300.17 ± 1.3 J/K/mol
301.59 K	289.49 ± 1 J/K/mol
302.12 K	300.57 ± 1.3 J/K/mol
302.65 K	301.05 ± 1.3 J/K/mol
302.7 K	301.5 ± 1.3 J/K/mol
302.82 K	300.42 ± 1.3 J/K/mol
303.5 K	300.72 ± 1.3 J/K/mol
303.53 K	291.77 ± 1.1 J/K/mol
303.83 K	301.92 ± 1.3 J/K/mol
303.92 K	292.06 ± 1 J/K/mol
304.18 K	301.47 ± 1.3 J/K/mol
304.87 K	301.52 ± 1.3 J/K/mol
305.01 K	302.77 ± 1.3 J/K/mol
305.55 K	302.32 ± 1.3 J/K/mol
305.56 K	303.47 ± 1.3 J/K/mol
306.19 K	303.64 ± 1.3 J/K/mol
306.28 K	293.59 ± 1.1 J/K/mol
306.3 K	293.93 ± 1.1 J/K/mol and 304.42 ± 1.3 J/K/mol
306.99 K	304.54 ± 1.3 J/K/mol
307.44 K	304.69 ± 1.3 J/K/mol
307.7 K	304.19 ± 1.3 J/K/mol
308.38 K	304.52 ± 1.3 J/K/mol
308.41 K	305.57 ± 1.4 J/K/mol
308.62 K	305.54 ± 1.4 J/K/mol
308.68 K	295.75 ± 1.1 J/K/mol
309.04 K	295.5 ± 1.1 J/K/mol
309.07 K	305.39 ± 1.3 J/K/mol
309.75 K	305.67 ± 1.4 J/K/mol
309.8 K	305.39 ± 1.3 J/K/mol
310 K	296 ± 1.1 J/K/mol
310.43 K	305.52 ± 1.3 J/K/mol
310.97 K	306.74 ± 1.4 J/K/mol
311.08 K	296.13 ± 1.1 J/K/mol
311.11 K	306.24 ± 1.4 J/K/mol
311.25 K	307.59 ± 1.4 J/K/mol
311.79 K	306.69 ± 1.4 J/K/mol
311.8 K	297.26 ± 1.1 J/K/mol
312.15 K	307.81 ± 1.4 J/K/mol
312.47 K	307.31 ± 1.4 J/K/mol
313.16 K	307.84 ± 1.4 J/K/mol
313.33 K	308.96 ± 1.4 J/K/mol
313.44 K	298.8 ± 1.1 J/K/mol
313.84 K	308.56 ± 1.4 J/K/mol
314.07 K	309.84 ± 1.4 J/K/mol
314.51 K	309.76 ± 1.4 J/K/mol
314.52 K	309.11 ± 1.4 J/K/mol
314.56 K	298.99 ± 1.1 J/K/mol
315.19 K	310.48 ± 1.4 J/K/mol
315.69 K	310.88 ± 1.4 J/K/mol
315.85 K	300.25 ± 1.1 J/K/mol
315.89 K	310.18 ± 1.4 J/K/mol
316.57 K	310.56 ± 1.4 J/K/mol
316.88 K	312.41 ± 1.4 J/K/mol and 311.61 ± 1.4 J/K/mol
317.31 K	309.31 ± 1.3 J/K/mol
317.53 K	300.52 ± 1.1 J/K/mol
317.99 K	311.11 ± 1.4 J/K/mol
318.06 K	312.53 ± 1.4 J/K/mol
318.28 K	301.47 ± 1.1 J/K/mol
318.66 K	311.58 ± 1.4 J/K/mol
319.25 K	313.46 ± 1.4 J/K/mol
319.34 K	313.53 ± 1.4 J/K/mol
319.69 K	314.25 ± 1.4 J/K/mol
320 K	302.2 ± 1.1 J/K/mol
320.02 K	313.28 ± 1.4 J/K/mol
320.3 K	302.56 ± 1.1 J/K/mol
320.43 K	313.61 ± 1.4 J/K/mol
320.7 K	312.78 ± 1.4 J/K/mol
320.71 K	302.82 ± 1.1 J/K/mol
321.37 K	314.2 ± 1.4 J/K/mol
321.6 K	312.51 ± 1.4 J/K/mol
322.05 K	315.53 ± 1.4 J/K/mol
322.49 K	315.5 ± 1.4 J/K/mol
322.74 K	316.33 ± 1.4 J/K/mol
322.78 K	316.4 ± 1.4 J/K/mol
323.07 K	304.17 ± 1.1 J/K/mol
323.15 K	304.37 ± 1.1 J/K/mol
323.43 K	315.9 ± 1.4 J/K/mol
323.97 K	317.18 ± 1.4 J/K/mol
324.11 K	315.95 ± 1.4 J/K/mol
